According to ChEMBL document CHEMBL1128921, “Mechanism-based inactivation of serine proteases by dichlorocyclopropane fused lactone derivatives” (Bioorg Med Chem Lett, 1996):
One block for each compound: values may come before it.

What was measured:
[1] = biological target: T1, Chymotrypsin-like elastase family member 2A (Sus scrofa) (UniProt P08419); test: Compound was evaluated for inhibitory activity against PP elastase at a concentration of 2.0 x 10e-5; NI = No inactivation
T1 sequence (whole entry): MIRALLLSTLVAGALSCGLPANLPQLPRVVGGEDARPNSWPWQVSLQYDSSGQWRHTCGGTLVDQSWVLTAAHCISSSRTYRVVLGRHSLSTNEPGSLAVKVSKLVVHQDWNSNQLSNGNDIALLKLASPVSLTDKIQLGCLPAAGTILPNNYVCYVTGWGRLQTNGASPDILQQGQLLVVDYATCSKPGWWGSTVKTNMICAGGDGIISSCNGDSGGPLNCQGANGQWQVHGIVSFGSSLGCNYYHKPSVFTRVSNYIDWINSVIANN

[2] = biological target: Chymotrypsinogen A (Bos taurus) (UniProt P00766); test: Compound was evaluated for inhibitory activity against alpha-chymotrypsin at a concentration of 7.5 x 10e-6
[3] = biological target: Chymotrypsinogen A (Bos taurus) (UniProt P00766); test: Compound was evaluated for inhibitory activity against alpha-chymotrypsin at a concentration of 6.0 x 10e-3
[4] = biological target: T1, Chymotrypsin-like elastase family member 2A (Sus scrofa); test: Compound was evaluated for inhibitory activity against PP elastase at a concentration of 1.2 x 10e-3; NI = No inactivation
[5] = biological target: Chymotrypsinogen A (Bos taurus) (UniProt P00766); test: Compound was evaluated for inhibitory activity against alpha-chymotrypsin at a concentration of 5.0 x 10e-4
[6] = biological target: T1, Chymotrypsin-like elastase family member 2A (Sus scrofa); test: Compound was evaluated for inhibitory activity against PP elastase at a concentration of 1.95 x 10e-2; NI = No inactivation
[7] = biological target: Chymotrypsinogen A (Bos taurus) (UniProt P00766); test: Compound was evaluated for inhibitory activity against alpha-chymotrypsin at a concentration of 1.95 x 10e-2; NI = No inactivation
[8] = biological target: Chymotrypsinogen A (Bos taurus) (UniProt P00766); test: Compound was evaluated for inhibitory activity against alpha-chymotrypsin at a concentration of 5.0 x 10e-4; NI = No inactivation

SMILES: O=C1CCC2C(O1)C2(Cl)Cl (stereo not drawn)
K obs / 1 [6]: No inactivation | K obs / 1 [7]: No inactivation

SMILES: O=C1OCCCC1Cc1ccccc1 (stereo not drawn)
K obs / 1 [8]: No inactivation

Second part, the compound after the results:

K obs / 1 [1]: No inactivation | K obs / 1 [2]: 54 M⁻¹ s⁻¹
SMILES: O=C1OC2C(CC1Cc1ccccc1)C2(Cl)Cl (stereo not drawn)

K obs / 1 [3]: 0.054 M⁻¹ s⁻¹
SMILES: O=C(O)CCC(=O)N[C@@H](Cc1ccccc1)C(=O)OC1CC1(Cl)Cl (stereo partly drawn)

K obs / 1 [4]: No inactivation | K obs / 1 [5]: 0.337 M⁻¹ s⁻¹
SMILES: C[C@H](NC(=O)CCC(=O)O)C(=O)N[C@@H](C)C(=O)N[C@@H](Cc1ccccc1)C(=O)OC1CC1(Cl)Cl (stereo partly drawn)
